Measurements from PubChem BioAssay AID1963837 (Molecular Pharmacology Branch, DTP, NCI, 2024).
pIC50: −log10 of the molar value.

Tested on: 843126-344-R-J1-PDC complex spheroid viability
Experiment: Anticancer human tumor 843126-344-R-J1-PDC patient-derived melanoma cell line growth inhibition [POLQ]
Conditions: for pIC50: curve of first compound; for viability, T/C: stronger effect = lower value
Experimental: Multicellular complex tumor spheroid response to Polymerase (POL) inhibitors (novobiocin, ART-558, RP6685) in combination with a variety of drugs and investigational agents in selected tumor cell lines
The POL inhibitors (novobiocin, ART-558, and RP6685) were evaluated both individually and in combination with standard of care and investigational anticancer small molecules within a complex spheroid model of solid tumors. . Complex spheroids include a stromal component modeled by human endothelial cells (HUVEC) and fibroblasts modeled by human mesenchymal stem cells (MSCs). The concentration ranges selected for each drug and investigational agent were based upon clinically achievable concentrations if the clinical Cmax of the agent was known.
Compounds. The drugs and investigational agents: novobiocin (NSC847541), ART-558 (NSC835418), RP-6685 (NSC848927), peposertib (NSC802822), ceralasertib (NSC780249), elimusertib (NSC800525), camonsertib (NSC841442), AZD-1390 (NSC803789), olaparib (NSC753686), talazoparib (NSC767125), rucaparib (NSC756644), sotorasib (NSC818433), MRTX-1133 (NSC836407), SN-38 (NSC673596), topotecan (NSC609699), epotoside (NSC141540), doxorubicin (NSC123127), gemcitabine (NSC613327), 5-fluorouracil (NSC19893), paclitaxel (NSC125973), vemurafenib (NSC761431), MSA-2 (NSC828583), SN-011 (NSC837082), adavosertib (NSC754352), prexasertib (NSC758257), carboplatin (NSC241240) and oxaliplatin (NSC266046), were obtained from the National Cancer Institute (NCI) Developmental Therapeutics Program Chemical Repository (21). The FDA-approved anticancer drug set is available from the Developmental Therapeutics Program at https://dtp.cancer.gov/organization/dscb/obtaining/. […] The stock solutions were prepared in dimethyl sulfoxide (DMSO, Sigma-Aldrich, St. Louis, MO, cat. D2650), except for the platinum compounds which were prepared in saline (Quality Biological, Gaithersburg, MD, cat. 114-055-101), at 800-fold the tested concentration and stored at -70 degrees C prior to their use. All drugs and investigational agents were tested over a range starting from a high concentration at or near the clinical Cmax and decreasing in half-log increments. If the clinical Cmax for an agent had not been determined, the highest concentration tested was 10 microM, except for SN-38, which was tested at a high concentration of 1 microM.
Cell Culture. All cells were maintained in an incubator at 37 degrees C and 5% CO2 with 95% humidity. The PDC lines were cultured according to standard operating procedures established by the NCI PDMR (https://pdmr.cancer.gov). Table 3 of the manuscript, lists the cell lines along with the number of the three cell types plated to form the mct-spheroids and media for tumor cell growth. After thawing, all PDC lines, except 997537-175-T-J1-PDC and 415267-285-R-J2-PDC, were cultured in Matrigel-coated flasks prepared with a working solution of 1X Ham's F-12 nutrient mix, without supplementation (Thermo Fisher Scientific, cat. 11765054), 100 U/mL penicillin-streptomycin (Thermo Fisher Scientific, cat. 15140122), and 2.5% Matrigel (Corning Inc., Corning, NY, cat. 354248) for the first three passages. The two PDC lines 997537-175-T-J1-PDC and 415267-285-R-J2-PDC were cultured on uncoated flasks. The 857933-349-R-J2-PDC line was cultured in 6C/Colon 1B media containing advanced DMEM/F-12 (Thermo Fisher Scientific, cat. 12634028), 10 mM HEPES (Thermo Fisher Scientific, cat. 15630080), 1X GlutaMAX supplement (Thermo Fisher Scientific, cat. 35050061), 0.1 mg/mL primocin (InvivoGen, San Diego, CA, cat. ant-pm-2), 10% defined fetal bovine serum, heat inactivated (HyClone Laboratories Inc., Logan, UT, cat. SH30070.03HI), 50% L-WRN conditioned media (ATCC, cat. CRL-3276), 1.25 mM N-Acetyl-L-cysteine (Sigma-Aldrich, cat. A9165), 10 mM nicotinamide (Sigma-Aldrich, cat. N0636), 1X B-27 supplement (Thermo Fisher Scientific, cat. 17504044), 1X N-2 supplement (Thermo Fisher Scientific, cat. […]
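For viability, T/C in this document: spheroids exposed to drugs for seven days before readout.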

Question: `CC(=O)O[C@H]1C(=O)[C@@]2(C)[C@H]([C@H](OC(=O)c3ccccc3)[C@]3(O)C[C@H](OC(=O)[C@H](O)[C@@H](NC(=O)c4ccccc4)c4ccccc4)C(C)=C1C3(C)C)[C@]1(OC(C)=O)CO[C@@H]1C[C@@H]2O` + COC1C(OC(N)=O)C(O)C(Oc2ccc3c(O)c(NC(=O)c4ccc(O)c(CC=C(C)C)c4)c(=O)oc3c2C)OC1(C)C was tested. Which pIC50 (second compound 0.0316 µM) did it give?
Answer: Its pIC50 is < 5.52.

Question: What about the pIC50 (second compound 0.1 µM) of the same compound?
Answer: Its pIC50 is < 5.52.

Question: What about the pIC50 (second compound 0.316 µM) of the same compound?
Answer: The pIC50 was < 5.52.

Question: And the pIC50 (second compound 1 µM)?
Answer: The pIC50 was < 5.52.

Question: What about the pIC50 (second compound 3.16 µM) of the same compound?
Answer: The pIC50 was < 5.52.

Question: What about the pIC50 (second compound 10 µM) of the same compound?
Answer: Its pIC50 is < 5.52.

Question: What about the viability, T/C (second compound 0.0316 µM, first compound 0.00949 µM) of the same compound?
Answer: The viability, T/C was 55.4%.

Question: What about the viability, T/C (second compound 0.0316 µM, first compound 0.03 µM) of the same compound?
Answer: The viability, T/C was 70%.

Question: And the viability, T/C (second compound 0.0316 µM, first compound 0.0949 µM)?
Answer: Its viability, T/C is 56%.

Question: What about the viability, T/C (second compound 0.0316 µM, first compound 0.3 µM) of the same compound?
Answer: The viability, T/C was 69.8%.

Question: And the viability, T/C (second compound 0.0316 µM, first compound 0.949 µM)?
Answer: Its viability, T/C is 61.2%.

Question: What about the viability, T/C (second compound 0.0316 µM, first compound 3 µM) of the same compound?
Answer: Its viability, T/C is 68.9%.

Question: What about the viability, T/C (second compound 0.1 µM, first compound 0.00949 µM) of the same compound?
Answer: Its viability, T/C is 63.9%.

Question: What about the viability, T/C (second compound 0.1 µM, first compound 0.03 µM) of the same compound?
Answer: Its viability, T/C is 60.9%.

Question: What about the viability, T/C (second compound 0.1 µM, first compound 0.0949 µM) of the same compound?
Answer: The viability, T/C was 49.1%.

Question: What about the viability, T/C (second compound 0.1 µM, first compound 0.3 µM) of the same compound?
Answer: The viability, T/C was 55.3%.

Question: What about the viability, T/C (second compound 0.1 µM, first compound 0.949 µM) of the same compound?
Answer: Its viability, T/C is 55.5%.

Question: And the viability, T/C (second compound 0.1 µM, first compound 3 µM)?
Answer: The viability, T/C was 57.5%.

Question: What about the viability, T/C (second compound 0.316 µM, first compound 0.00949 µM) of the same compound?
Answer: Its viability, T/C is 55.6%.

Question: What about the viability, T/C (second compound 0.316 µM, first compound 0.03 µM) of the same compound?
Answer: The viability, T/C was 64.6%.

Question: What about the viability, T/C (second compound 0.316 µM, first compound 0.0949 µM) of the same compound?
Answer: The viability, T/C was 65.5%.

Question: What about the viability, T/C (second compound 0.316 µM, first compound 0.3 µM) of the same compound?
Answer: The viability, T/C was 57.1%.

Question: And the viability, T/C (second compound 0.316 µM, first compound 0.949 µM)?
Answer: The viability, T/C was 55.7%.

Question: What about the viability, T/C (second compound 0.316 µM, first compound 3 µM) of the same compound?
Answer: Its viability, T/C is 61.1%.

Question: And the viability, T/C (second compound 1 µM, first compound 0.00949 µM)?
Answer: Its viability, T/C is 60.2%.

Question: And the viability, T/C (second compound 1 µM, first compound 0.03 µM)?
Answer: The viability, T/C was 59.8%.

Question: What about the viability, T/C (second compound 1 µM, first compound 0.0949 µM) of the same compound?
Answer: The viability, T/C was 61.6%.

Question: And the viability, T/C (second compound 1 µM, first compound 0.3 µM)?
Answer: The viability, T/C was 60.4%.

Question: What about the viability, T/C (second compound 1 µM, first compound 0.949 µM) of the same compound?
Answer: Its viability, T/C is 52.5%.

Question: What about the viability, T/C (second compound 1 µM, first compound 3 µM) of the same compound?
Answer: The viability, T/C was 52.1%.

Question: And the viability, T/C (second compound 3.16 µM, first compound 0.00949 µM)?
Answer: Its viability, T/C is 63.6%.

Question: And the viability, T/C (second compound 3.16 µM, first compound 0.03 µM)?
Answer: The viability, T/C was 62.2%.

Question: What about the viability, T/C (second compound 3.16 µM, first compound 0.0949 µM) of the same compound?
Answer: The viability, T/C was 53.8%.

Question: And the viability, T/C (second compound 3.16 µM, first compound 0.3 µM)?
Answer: The viability, T/C was 57.2%.

Question: And the viability, T/C (second compound 3.16 µM, first compound 0.949 µM)?
Answer: Its viability, T/C is 60.7%.

Question: And the viability, T/C (second compound 3.16 µM, first compound 3 µM)?
Answer: The viability, T/C was 50.9%.

Question: And the viability, T/C (second compound 10 µM, first compound 0.00949 µM)?
Answer: The viability, T/C was 65.4%.

Question: What about the viability, T/C (second compound 10 µM, first compound 0.03 µM) of the same compound?
Answer: The viability, T/C was 55.8%.

Question: What about the viability, T/C (second compound 10 µM, first compound 0.0949 µM) of the same compound?
Answer: Its viability, T/C is 52.9%.

Question: What about the viability, T/C (second compound 10 µM, first compound 0.3 µM) of the same compound?
Answer: Its viability, T/C is 54.6%.

Question: And the viability, T/C (second compound 10 µM, first compound 0.949 µM)?
Answer: The viability, T/C was 66.1%.

Question: And the viability, T/C (second compound 10 µM, first compound 3 µM)?
Answer: The viability, T/C was 57.1%.
